{
  "source": "ChEMBL document CHEMBL1201862",
  "about": "“PubChem BioAssay data set” (2004)",
  "assay_in_all_cases": "NCI tumour cell line growth inhibition, 48 h",
  "key": {"SF-295": {"tested_on": "SF-295"}, "UACC-62": {"tested_on": "UACC-62"}, "SF-268": {"tested_on": "SF-268"}, "KM-20L2": {"tested_on": "KM-20L2"}, "OVCAR-8": {"tested_on": "OVCAR-8"}, "NCI-H460": {"tested_on": "NCI-H460"}, "A549": {"tested_on": "A549"}, "UACC-257": {"tested_on": "UACC-257"}, "SN12C": {"tested_on": "SN12C"}, "RPMI-8226": {"tested_on": "RPMI-8226"}, "LOX IMVI": {"tested_on": "LOX IMVI"}, "OVCAR-5": {"tested_on": "OVCAR-5"}, "CAKI-1": {"tested_on": "CAKI-1"}, "NCI-H23": {"tested_on": "NCI-H23"}, "SK-OV-3": {"tested_on": "SK-OV-3"}, "U-251": {"tested_on": "U-251"}, "KM12": {"tested_on": "KM12"}, "RXF 393": {"tested_on": "RXF 393"}, "EKVX": {"tested_on": "EKVX"}, "DLD-1": {"tested_on": "DLD-1"}, "UO-31": {"tested_on": "UO-31"}, "786-0": {"tested_on": "786-0"}, "SNB-19": {"tested_on": "SNB-19"}, "OVCAR-4": {"tested_on": "OVCAR-4"}, "M14": {"tested_on": "M14"}, "SF-539": {"tested_on": "SF-539"}, "HCT-15": {"tested_on": "HCT-15"}, "NCI-H226": {"tested_on": "NCI-H226"}, "M19-MEL": {"tested_on": "M19-MEL"}, "TK-10": {"tested_on": "TK-10"}, "ACHN": {"tested_on": "ACHN"}, "SW-620": {"tested_on": "SW-620"}, "HOP-62": {"tested_on": "HOP-62"}, "COLO 205": {"tested_on": "COLO 205"}, "OVCAR-3": {"tested_on": "OVCAR-3"}, "CCRF-CEM": {"tested_on": "CCRF-CEM"}, "SK-MEL-28": {"tested_on": "SK-MEL-28"}, "SNB-78": {"tested_on": "SNB-78"}, "DMS-273": {"tested_on": "DMS-273"}, "HL-60": {"tested_on": "HL-60"}, "SK-MEL-2": {"tested_on": "SK-MEL-2"}, "HCT-116": {"tested_on": "HCT-116"}, "SK-MEL-5": {"tested_on": "SK-MEL-5"}, "DMS-114": {"tested_on": "DMS-114"}, "HOP-92": {"tested_on": "HOP-92"}, "K562": {"tested_on": "K562"}, "A498": {"tested_on": "A498"}, "HT-29": {"tested_on": "HT-29"}, "NCI-H522": {"tested_on": "NCI-H522"}, "Malme-3M": {"tested_on": "Malme-3M"}},
  "note": "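Tested at 5 concentrations; 48 h exposure; 96-well plates; endpoints linearly interpolated, else capped at highest concentration. Here, GI50 denotes the concentration required for 50% inhibition of growth.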 The source made the active and inactive calls. Rule as the data show it: active = GI50 up to about 1.1 µM and inactive = higher.",
  "data": [
    {"molecule": "C/C(=N\\NC(=O)c1cccnc1)c1cccc(/C(C)=N/NC(=O)c2cccnc2)n1.CC(=O)[O-].CC(=O)[O-].[Zn+2]", "values": [
      {"measurement": "GI50", "setting": "SF-295", "result": "2.74 µM (inactive)"},
      {"measurement": "GI50", "setting": "UACC-62", "result": "2.25 µM (inactive)"},
      {"measurement": "GI50", "setting": "SF-268", "result": "0.668 µM (active)"},
      {"measurement": "GI50", "setting": "KM-20L2", "result": "1.67 µM (inactive)"},
      {"measurement": "GI50", "setting": "OVCAR-8", "result": "1.62 µM (inactive)"},
      {"measurement": "GI50", "setting": "NCI-H460", "result": "4.31 µM (inactive)"},
      {"measurement": "GI50", "setting": "A549", "result": "3.91 µM (inactive)"},
      {"measurement": "GI50", "setting": "UACC-257", "result": "5.41 µM (inactive)"},
      {"measurement": "GI50", "setting": "SN12C", "result": "4.9 µM (inactive)"},
      {"measurement": "GI50", "setting": "RPMI-8226", "result": "6.21 µM (inactive)"},
      {"measurement": "GI50", "setting": "LOX IMVI", "result": "1.62 µM (inactive)"},
      {"measurement": "GI50", "setting": "OVCAR-5", "result": "4.13 µM (inactive)"},
      {"measurement": "GI50", "setting": "CAKI-1", "result": "2.64 µM (inactive)"},
      {"measurement": "GI50", "setting": "NCI-H23", "result": "4.01 µM (inactive)"},
      {"measurement": "GI50", "setting": "SK-OV-3", "result": "2.22 µM (inactive)"},
      {"measurement": "GI50", "setting": "U-251", "result": "1.03 µM (active)"},
      {"measurement": "GI50", "setting": "KM12", "result": "3.3 µM (inactive)"},
      {"measurement": "GI50", "setting": "RXF 393", "result": "3.01 µM (inactive)"},
      {"measurement": "GI50", "setting": "EKVX", "result": "2.86 µM (inactive)"},
      {"measurement": "GI50", "setting": "DLD-1", "result": "1.68 µM (inactive)"},
      {"measurement": "GI50", "setting": "UO-31", "result": "2.72 µM (inactive)"},
      {"measurement": "GI50", "setting": "786-0", "result": "4.43 µM (inactive)"},
      {"measurement": "GI50", "setting": "SNB-19", "result": "2.86 µM (inactive)"},
      {"measurement": "GI50", "setting": "OVCAR-4", "result": "0.504 µM (active)"},
      {"measurement": "GI50", "setting": "M14", "result": "4.46 µM (inactive)"},
      {"measurement": "GI50", "setting": "SF-539", "result": "1.57 µM (inactive)"},
      {"measurement": "GI50", "setting": "HCT-15", "result": 2.26, "unit": "µM"},
      {"measurement": "GI50", "setting": "NCI-H226", "result": "2.31 µM (inactive)"},
      {"measurement": "GI50", "setting": "M19-MEL", "result": "8.45 µM (inactive)"},
      {"measurement": "GI50", "setting": "TK-10", "result": "5.65 µM (inactive)"},
      {"measurement": "GI50", "setting": "ACHN", "result": "1.52 µM (inactive)"},
      {"measurement": "GI50", "setting": "SW-620", "result": "3.54 µM (inactive)"},
      {"measurement": "GI50", "setting": "HOP-62", "result": "1.45 µM (inactive)"}
    ]},
    {"molecule": "Cc1cc(N(CCC#N)CCC#N)ccc1/N=N/c1cccc(Cl)c1", "values": [
      {"measurement": "GI50", "setting": "SF-295", "result": "> 100 µM (inactive)"},
      {"measurement": "GI50", "setting": "COLO 205", "result": "> 100 µM (inactive)"},
      {"measurement": "GI50", "setting": "UACC-62", "result": "70.8 µM (inactive)"},
      {"measurement": "GI50", "setting": "OVCAR-3", "result": "> 100 µM (inactive)"},
      {"measurement": "GI50", "setting": "CCRF-CEM", "result": "> 100 µM (inactive)"},
      {"measurement": "GI50", "setting": "KM-20L2", "result": "> 100 µM (inactive)"},
      {"measurement": "GI50", "setting": "OVCAR-8", "result": "> 100 µM (inactive)"},
      {"measurement": "GI50", "setting": "NCI-H460", "result": "5.75 µM (inactive)"},
      {"measurement": "GI50", "setting": "A549", "result": "9.93 µM (inactive)"},
      {"measurement": "GI50", "setting": "SK-MEL-28", "result": "> 100 µM (inactive)"},
      {"measurement": "GI50", "setting": "UACC-257", "result": "> 100 µM (inactive)"},
      {"measurement": "GI50", "setting": "SNB-78", "result": "> 100 µM (inactive)"},
      {"measurement": "GI50", "setting": "DMS-273", "result": "9.68 µM (inactive)"},
      {"measurement": "GI50", "setting": "SN12C", "result": "> 100 µM (inactive)"},
      {"measurement": "GI50", "setting": "RPMI-8226", "result": "> 100 µM (inactive)"},
      {"measurement": "GI50", "setting": "HL-60", "result": "3.94 µM (inactive)"},
      {"measurement": "GI50", "setting": "SK-MEL-2", "result": "> 100 µM (inactive)"},
      {"measurement": "GI50", "setting": "HCT-116", "result": "> 100 µM (inactive)"},
      {"measurement": "GI50", "setting": "OVCAR-5", "result": "> 100 µM (inactive)"},
      {"measurement": "GI50", "setting": "CAKI-1", "result": "2.96 µM (inactive)"},
      {"measurement": "GI50", "setting": "NCI-H23", "result": "80.7 µM (inactive)"},
      {"measurement": "GI50", "setting": "SK-OV-3", "result": "> 100 µM (inactive)"},
      {"measurement": "GI50", "setting": "U-251", "result": "> 100 µM (inactive)"},
      {"measurement": "GI50", "setting": "SK-MEL-5", "result": "> 100 µM (inactive)"},
      {"measurement": "GI50", "setting": "DMS-114", "result": "31.8 µM (inactive)"},
      {"measurement": "GI50", "setting": "HOP-92", "result": "20.7 µM (inactive)"},
      {"measurement": "GI50", "setting": "KM12", "result": "> 100 µM (inactive)"},
      {"measurement": "GI50", "setting": "K562", "result": "3.42 µM (inactive)"},
      {"measurement": "GI50", "setting": "RXF 393", "result": "75 µM (inactive)"},
      {"measurement": "GI50", "setting": "EKVX", "result": "> 100 µM (inactive)"},
      {"measurement": "GI50", "setting": "A498", "result": "> 100 µM (inactive)"},
      {"measurement": "GI50", "setting": "UO-31", "result": "> 100 µM (inactive)"},
      {"measurement": "GI50", "setting": "786-0", "result": "> 100 µM (inactive)"},
      {"measurement": "GI50", "setting": "HT-29", "result": "4.08 µM (inactive)"},
      {"measurement": "GI50", "setting": "SNB-19", "result": "51.8 µM (inactive)"},
      {"measurement": "GI50", "setting": "NCI-H522", "result": "> 100 µM (inactive)"},
      {"measurement": "GI50", "setting": "OVCAR-4", "result": "> 100 µM (inactive)"},
      {"measurement": "GI50", "setting": "M14", "result": "> 100 µM (inactive)"},
      {"measurement": "GI50", "setting": "Malme-3M", "result": "> 100 µM (inactive)"},
      {"measurement": "GI50", "setting": "SF-539", "result": "> 100 µM (inactive)"},
      {"measurement": "GI50", "setting": "NCI-H226", "result": "> 100 µM (inactive)"},
      {"measurement": "GI50", "setting": "M19-MEL", "result": "> 100 µM (inactive)"},
      {"measurement": "GI50", "setting": "TK-10", "result": "> 100 µM (inactive)"},
      {"measurement": "GI50", "setting": "ACHN", "result": "> 100 µM (inactive)"},
      {"measurement": "GI50", "setting": "SW-620", "result": "> 100 µM (inactive)"},
      {"measurement": "GI50", "setting": "HOP-62", "result": "86.5 µM (inactive)"}
    ]}
  ]
}
